“Also recorded” adds a separate entry of the source. Positions of bridges follow the written chain, without caps; N, C: chain ends. Non-standard residues stand in square brackets, D forms with d. Residues, ends and D or L forms follow the SMILES beside them. hArg = N=C(N)NCCCC[C@H](N)C(=O)O; Mpa = O=C(O)CCS
What was measured:
[1] = cited from earlier work
[2] = system: SAP 6 binding to A549 cells; assay: Inhibition of labeled SAP 6 binding to human lung carcinoma A549 cells (FACS); format: cell-based; details: for ratio of positive cells in R4: 400 μM inhibitor + labeled SAP 6, cells + labeled SAP 6 alone 3.23%, cells only 0.69%; for inhibition of SAP 6 binding to A549 cells: 10° C. for 30 min, FACS
Method: RGDS peptide or Integrilin® inhibition assay and cell viability assay. Grew human lung carcinoma A 549 cell and harvested the cells with 46×10^4 per ml. Changed the medium from complete growth medium into D-MEM/F-12 without phenol red; and transferred the aliquot volume of 0.2 ml cells into 1.5 ml sterile tubes. Added 50 μl of 2.4 mM RGDS peptide and Integrilin® into sample III and sample IV respectively, incubated all samples at 37° C. for 10 min. Then, added […] labeled Fluoro®-488 SAP 6 into Sample II, Sample III and Sample IV (Sample I is negative control, added 100 μl medium inside). Incubated the four mixtures at 10° C. for 30 min, and then centrifuged the cell cultures at 400 g at 10° C. for 5 min to remove the suspension. Washed the cells 1-2 times with 1 ml D-MEM/F-12 medium without phenol red to remove the unbound compounds. Sort the negative (non-labeling SAP 6) and positive (binding labeled SAP 6) cells by fluorescence-activated cell-sorting (FACS). […] It is often considered as a negative control.

[3] = system: SAP 6 binding to human platelets; details: for inhibition of SAP 6 binding to human platelets: ADP-activated platelets, Alexa Fluor 488 SAP 6
Method: Cells were incubated with labeled enzyme together with ADP and inhibitors respectively at 40° C., then pellets were resuspended in 100 ml Hepes-Tyrode buffer, and fluorescence measured by TECAN (Ex./Em.=488 nm/519 nm). […] T test (mean with SEM), n=3, *P<0.05, **P<0.001.
Recombinnat C. albicans SAP 6 was labeled with Alexa Fluor® 488 based on the Invitrogen Alexa Fluor® 488 protein labeling kit manual. […] To obtain the pure platelets, it needs to be further isolated as follows: (1) carefully transfer 10 ml platelets (including rich plasma) to a 15 ml tube and add 1/10 volume of ACD anticoagulant (6.25 g sodium citrate.2H2O, 3.1 g citric acid anhidrous, 3.4 g D-glucose in 250 ml H2O); (2) pellet platelets by centrifuged at 3000 rpm for 5 minutes at room temperature (note: after centrifugation, supernatant still contains significant amount of platelets and it can be collected for experiments); (3) resuspend the pellet in ˜1 ml Hepes-Tyrode buffer pH=7.4 (134 mM sodium chloride, 12 mM sodium bicarbonate, 2.9 mM potassium chloride, 0.34 mM sodium phosphate monobasic, 5 mM Hepes, 5 mM glucose, 1% BSA). When the human platelets were ready, they were incubated labeled SAP 6 with relative amount of platelets at 4° C., room temperature and 37° C. for 2 h, 1 h and 30 min respectively. The mixtures were washed by Hepes-Tyrode buffer two times at 1500 rpm for 8 min. Resuspended the pellets in Hepes-Tyrode buffer and mounted on glass slides. The glass slides were imaged by the epifluorescence microscope for simultaneous detection of Platelet/SAP 6-AlexaFluor-488 fluorescence (FIGS. 3A-B).
Purified recombination C. albicans SAP 6 was labeled by the Alexa Fluor° 488 Protein Labeling Kit from Invitrogen. […] Fifty μl purified human platelets were added into the total 100 μl reaction mixture. A gradient of ADP concentrations (0.25 μM, 0.5 μM and 1 μM) was designed to test if ADP can activate platelets during the binding assay (FIG. 4A).

[4] = system: A549 cells; assay: Morphology assay, rescue of apoptosis of A549 cells induced by SAP 6; format: cell-based, human; details: bright-field images after two weeks incubation, data not shown
[5] = target: integrin of A549 cells (human lung carcinoma cells)

Clc1ccccc1C(c1ccccc1)(c1ccccc1)n1ccnc1 [Clotrimazole]
absorption after application to the skin ([1]; in vivo): less than 0.5% | absorption from the vagina ([1]; in vivo): 3-10%

Clc1ccc(COC(Cn2ccnc2)c2ccc(Cl)cc2Cl)cc1 (stereo not shown) [Econazole]
absorbed into the blood ([1]; in vivo): Less than 1%

OC(Cn1cncn1)(Cn1cncn1)c1ccc(F)cc1F [Fluconazole]
absorption from the GI tract ([1]; in vivo, po): almost completely absorbed

N=C(N)NCCCC[C@@H]1NC(=O)CCSSC[C@@H](C(N)=O)NC(=O)[C@@H]2CCCN2C(=O)[C@H](Cc2c[nH]c3ccccc23)NC(=O)[C@H](CC(=O)O)NC(=O)CNC1=O [Integrilin®] ([Mpa][hArg]GDWPC-NH2; disulfide 1-7)
ratio of positive cells in R4 [2]: 2.42% | inhibition of SAP 6 binding to A549 cells [2]: can inhibit; also recorded: significantly inhibit | inhibition of SAP 6 binding to human platelets [3]: dose-dependent inhibition

CCC(C)n1ncn(-c2ccc(N3CCN(c4ccc(OCC5COC(Cn6cncn6)(c6ccc(Cl)cc6Cl)O5)cc4)CC3)cc2)c1=O (stereo not shown) [Itraconazole]
absorption in the fasting state relative to drug taken with food ([1]; in vivo, po): 30%

CC(=O)N1CCN(c2ccc(OCC3COC(Cn4ccnc4)(c4ccc(Cl)cc4Cl)O3)cc2)CC1 (stereo not shown) [Ketoconazole]
peak plasma concentrations ([1]; oral doses 200-800 mg): 4 to 20 µg/mL

Arg-Gly-Asp-Ser (RGDS)
ratio of positive cells in R4 [2]: 1.68% | inhibition of SAP 6 binding to A549 cells [2]: much more inhibition than that of Integrilin®; also recorded: significantly inhibit | rescue of apoptosis of A549 cells induced by SAP 6 [4]: can rescue the apoptosis | inhibition of SAP 6 binding to human platelets [3]: dose-dependent inhibition | inhibition of SAP 6 binding to human platelets, compared between inhibitors ([3]; FIG. 4B): much stronger than that of Integrilin®

Integrilin® (C35H49N11O9S2, molecular weight 831.96) (peptide)
ratio of positive cells in R4 [5]: 2.42%

SDGRG: reverse peptide with no competition for integrin binding, negative control
inhibition of SAP 6 binding to A549 cells [2]: significantly less inhibition | inhibition of SAP 6 binding to A549 cells ([2]; listed as RDGRG): less inhibitory

secreted aspartic protease 6 (SAP 6) from Candida albicans, recombinant (from UniProt P43095) (enzyme)
ratio of positive cells in R4 [5]: 3.23%

RGDS [RGDS peptide (Arg-Gly-Asp-Ser)]
ratio of positive cells in R4 [5]: 1.68%

— US20110183891A1 (priority 2009, published 2011)
